Measurements from paper PMC12000319, “Proton conductance by human uncoupling protein 1 is inhibited by purine and pyrimidine nucleotides” (The EMBO Journal, 2025).
Where “and” joins values, the source holds several entries; their conditions need not be identical. Identical values can stand only once. Like-named read-outs stand apart in the source and are kept apart here.

What was measured:
[1] = biological target: T1, human OGC (SLC25A11) (Homo sapiens, UniProt Q02978); assay: Differential scanning fluorimetry (nanoDSF) thermal stability shift assay; assay type: binding; settings: 1 mM nucleotide, pH 6.0, single repeats (source data Fig. 4A)
T1 construct: His8 (N, cleaved yes); Factor Xa protease cleavage site (N, cleaved yes); made in house; host or cells: Saccharomyces cerevisiae strain W303.1B
T1 sequence (Q02978 1-314): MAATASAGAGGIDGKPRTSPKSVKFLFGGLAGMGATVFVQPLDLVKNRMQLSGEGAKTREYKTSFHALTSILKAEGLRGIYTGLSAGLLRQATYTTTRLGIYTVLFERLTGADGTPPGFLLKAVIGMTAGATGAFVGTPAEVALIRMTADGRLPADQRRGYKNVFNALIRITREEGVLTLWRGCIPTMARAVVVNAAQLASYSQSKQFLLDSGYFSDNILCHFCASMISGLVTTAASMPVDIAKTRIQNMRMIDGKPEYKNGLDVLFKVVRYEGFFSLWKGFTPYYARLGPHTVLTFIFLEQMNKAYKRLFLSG
Description: UCP1 is phylogenetically related to mitochondrial dicarboxylate carriers, gaining thermogenic properties as a later evolutionary development (Hughes et al, [2009]; Robinson et al, [2008]). The mitochondrial dicarboxylate carrier (DIC, SLC25A10) and oxoglutarate carrier (OGC, SLC25A11) are most closely related to UCP1 (Gaudry et al, [2019]; Hughes et al, [2009]) and share many residues involved in nucleotide binding in UCP1, such as the arginine triplet at the contact points, R92 and Q85 (Jones et al, [2024]). Given the similarity of the central cavity of UCP1, OGC and DIC, we tested whether the dicarboxylate carriers have the ability to bind nucleotides. For this purpose, we purified human DIC and OGC, and tested whether nucleotides were able to generate a thermostability shift, as observed for their physiological substrates (Pyrihová et al, [2024]). However, all tested nucleotides caused a negligible shift with both DIC or OGC at all pH values tested between 6.0 and 8.0 (Fig. 4A; Appendix Fig. S5). Thus, despite having many residues in common (Fig. 4B–D), UCP1 has evolved to have a few specific residues that allow high-affinity binding of nucleotides without a strong selection for nucleobase.
Differential scanning fluorimetry (nanoDSF) (Alexandrov et al, [2008]) was carried out with 2 µg UCP1, DIC or OGC protein (100 mM MES/HEPES, pH range 6.0–8.0, 25 mM NaCl, 1 mM TCEP, 0.01% lauryl maltose neopentyl glycol and 0.01 mg/mL tetraoleoyl cardiolipin) and, when required, 1 mM nucleotide, as indicated. The proteins have the following number of tryptophans: UCP1 (two); OGC (two); DIC (one). The samples were loaded into nanoDSF-grade standard glass capillaries. The temperature was increased by […] every minute from 25 to 95 °C, the intrinsic fluorescence was measured in a Prometheus NT.48 nanoDSF device, and the apparent Tm was calculated with the PR.ThermControl software (NanoTemper Technologies).

[2] = biological target: T2, UCP1 (Homo sapiens, UniProt P25874); assay: as above; assay type: binding
T2 construct: His8 (N, cleaved yes); Factor Xa protease cleavage site (N, cleaved yes); made in house; host or cells: Saccharomyces cerevisiae strain W303.1B
T2 sequence (P25874 1-307): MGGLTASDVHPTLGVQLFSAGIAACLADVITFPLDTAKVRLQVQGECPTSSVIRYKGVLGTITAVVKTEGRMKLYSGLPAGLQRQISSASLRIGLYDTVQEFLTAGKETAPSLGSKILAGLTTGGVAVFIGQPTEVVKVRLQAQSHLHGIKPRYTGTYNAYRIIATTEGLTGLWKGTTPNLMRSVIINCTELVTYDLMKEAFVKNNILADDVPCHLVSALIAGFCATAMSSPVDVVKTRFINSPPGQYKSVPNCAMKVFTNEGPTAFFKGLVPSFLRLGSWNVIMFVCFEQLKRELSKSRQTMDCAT

[3] = biological target: T2, UCP1; assay: Liposome reconstitution and proton conductance assay (pyranine fluorescence); assay type: biochemical; settings: UCP1 proteoliposomes, 200 µM oleic acid + 500 µM nucleotide, 2.5 µM valinomycin; single reconstitutions
[4] = biological target: T2, UCP1; assay: Isothermal titration calorimetry of nucleotide binding; design: isotherm data point (enthalpy change per injection): unit not given here; settings: for isotherm data point (enthalpy change per injection): representative isotherm;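 as to all read-outs here: purified human UCP1 in cacodylate buffer with lauryl maltose neopentyl glycol and cardiolipin, titrated with nucleotides, isotherms fitted by one-site model yielding ΔH, Kd and stoichiometry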

Cc1cn([C@H]2C[C@H](O)[C@@H](COP(=O)(O)OP(=O)(O)OP(=O)(O)O)O2)c(=O)[nH]c1=O [dTTP, thymidine triphosphate]
change in apparent melting temperature (ΔTm) of hOGC [1]: 0.5 and 0.3
difference in ΔTm versus GTP ([2]; 1 mM nucleotide, pH 6.0): 2.7 °C
temperature shift (ΔTm) ([2]; 1 mM nucleotide, pH 6.0, detergent-solubilised UCP1, mean of three biological repeats): 18.9 °C
ΔTm at 1000 µM ([2]; pH 6, read-out: thermal shift (ΔTm), 1 mM nucleotide, pH 6.0, single repeats (source data Fig. 1D)): 19 °C
ΔTm at 1000 µM ([2]; pH 6.5, read-out: thermal shift (ΔTm), 1 mM nucleotide, pH 6.5, single repeats (source data Fig. 1D)): 14.8 °C
ΔTm at 1000 µM ([2]; pH 7, read-out: thermal shift (ΔTm), 1 mM nucleotide, pH 7.0, single repeats (source data Fig. 1D)): 10.1 °C
ΔTm at 1000 µM ([2]; pH 7.5, read-out: thermal shift (ΔTm), 1 mM nucleotide, pH 7.5, single repeats (source data Fig. 1D)): 4 °C
Proton influx rate [3]: 84.11 nmol H+/min and 42.34 nmol H+/min and 68.93 nmol H+/min
binding affinity to UCP1 (in words) ([4]; ITC): highest binding affinities
Kd ([4]; ITC, pH 6.0, 20 °C, mean ± standard deviation of three biological repeats (Fig. 2A-E)): 1130 ± 90 nM
Kd ([4]; ITC, single biological repeats (source data Fig. 2F)): 1240 nM and 1090 nM and 1070 nM
isotherm data point (enthalpy change per injection) ([4]; Molar ratio (Nucleotide/UCP) 0.120417, pH 6.0, 20 °C): -22.0628
isotherm data point (enthalpy change per injection) ([4]; Molar ratio (Nucleotide/UCP) 0.181226, pH 6.0, 20 °C): -22.1545
isotherm data point (enthalpy change per injection) ([4]; Molar ratio (Nucleotide/UCP) 0.242439, pH 6.0, 20 °C): -21.2571
isotherm data point (enthalpy change per injection) ([4]; Molar ratio (Nucleotide/UCP) 0.304059, pH 6.0, 20 °C): -20.8684
isotherm data point (enthalpy change per injection) ([4]; Molar ratio (Nucleotide/UCP) 0.366087, pH 6.0, 20 °C): -22.682
isotherm data point (enthalpy change per injection) ([4]; Molar ratio (Nucleotide/UCP) 0.428528, pH 6.0, 20 °C): -21.6485
isotherm data point (enthalpy change per injection) ([4]; Molar ratio (Nucleotide/UCP) 0.491383, pH 6.0, 20 °C): -18.3951
isotherm data point (enthalpy change per injection) ([4]; Molar ratio (Nucleotide/UCP) 0.554656, pH 6.0, 20 °C): -20.6625
isotherm data point (enthalpy change per injection) ([4]; Molar ratio (Nucleotide/UCP) 0.618348, pH 6.0, 20 °C): -18.8854
isotherm data point (enthalpy change per injection) ([4]; Molar ratio (Nucleotide/UCP) 0.682464, pH 6.0, 20 °C): -18.4581
isotherm data point (enthalpy change per injection) ([4]; Molar ratio (Nucleotide/UCP) 0.747006, pH 6.0, 20 °C): -16.8767
isotherm data point (enthalpy change per injection) ([4]; Molar ratio (Nucleotide/UCP) 0.811976, pH 6.0, 20 °C): -15.5439
isotherm data point (enthalpy change per injection) ([4]; Molar ratio (Nucleotide/UCP) 0.877378, pH 6.0, 20 °C): -14.5814
isotherm data point (enthalpy change per injection) ([4]; Molar ratio (Nucleotide/UCP) 0.943214, pH 6.0, 20 °C): -11.542
isotherm data point (enthalpy change per injection) ([4]; Molar ratio (Nucleotide/UCP) 1.00949, pH 6.0, 20 °C): -9.131
isotherm data point (enthalpy change per injection) ([4]; Molar ratio (Nucleotide/UCP) 1.0762, pH 6.0, 20 °C): -6.9461
isotherm data point (enthalpy change per injection) ([4]; Molar ratio (Nucleotide/UCP) 1.14336, pH 6.0, 20 °C): -4.409
isotherm data point (enthalpy change per injection) ([4]; Molar ratio (Nucleotide/UCP) 1.21096, pH 6.0, 20 °C): -2.755
isotherm data point (enthalpy change per injection) ([4]; Molar ratio (Nucleotide/UCP) 1.27901, pH 6.0, 20 °C): -1.022
isotherm data point (enthalpy change per injection) ([4]; Molar ratio (Nucleotide/UCP) 1.34751, pH 6.0, 20 °C): -0.7829
isotherm data point (enthalpy change per injection) ([4]; Molar ratio (Nucleotide/UCP) 1.41647, pH 6.0, 20 °C): -1.325
isotherm data point (enthalpy change per injection) ([4]; Molar ratio (Nucleotide/UCP) 1.48589, pH 6.0, 20 °C): -0.8361
isotherm data point (enthalpy change per injection) ([4]; Molar ratio (Nucleotide/UCP) 1.55577, pH 6.0, 20 °C): 0.501
isotherm data point (enthalpy change per injection) ([4]; Molar ratio (Nucleotide/UCP) 1.62611, pH 6.0, 20 °C): 0.6153
isotherm data point (enthalpy change per injection) ([4]; Molar ratio (Nucleotide/UCP) 1.69692, pH 6.0, 20 °C): 0.02513
isotherm data point (enthalpy change per injection) ([4]; Molar ratio (Nucleotide/UCP) 1.76819, pH 6.0, 20 °C): -0.2521
isotherm data point (enthalpy change per injection) ([4]; Molar ratio (Nucleotide/UCP) 1.83995, pH 6.0, 20 °C): 0.8236
isotherm data point (enthalpy change per injection) ([4]; Molar ratio (Nucleotide/UCP) 1.91217, pH 6.0, 20 °C): 0.03383
isotherm data point (enthalpy change per injection) ([4]; Molar ratio (Nucleotide/UCP) 1.98488, pH 6.0, 20 °C): 0.2054
